“Also recorded” adds a separate entry of the source.
Legend:
Type in all cases: cell-based, human
HuH-7 cells = experiment: Cell spreading evaluation (phalloidin staining)
Description: All microscope imaging was performed with a Zeiss LSM 780 or Olympus SD-OSR. To assess the F-actin organization after certain treatments, cells were seeded on a glass-bottom culture dish (D11130H, Matsunami). After culture with the peptides, cells were fixed with 4% paraformaldehyde phosphate buffer solution (PFA, 30525-89-4, Wako) for 10 min at room temperature, washed, and permeabilized with 0.1% Triton X-100 (Sigma) in PBS for 15 min. Cells were washed with DPBS twice and incubated with ActinRed (Rhodamine-conjugated phalloidin, R37112, Invitrogen) or ActinGreen (Alexa-Fluor-488-conjugated phalloidin, R37110, Invitrogen) for 15 min at room temperature. Cells were washed with DPBS before being imaged. Morphological characteristics, including cell spreading area and perimeter area ratio, were quantified by Image J.

[1] = tested on: RhoA in HuH-7 cells (DORA-RhoA); experiment: RhoA activity by FRET
From the text: The mGFP-paxillin expression vector was a gift from A. Kusumi (Okinawa Institute of Science and Technology, Japan). pGFP-FAK and pEGFP-vinculin were gifts from Kenneth Yamada (RRID: Addgene_50513 and Addgene¬_50515)[39], EGFP-talin, mVenus-Integrin-Beta1 and mRuby-Lifeact-7 was a gift from Michael Davidson (RRID: Addgene_54560). pEGFPC1/Gg Vinculin 1-258 (akaVD1) was a gift from S. Craig (RRID: Addgene_46270)[40]. The Rac1 FRET Sensor, pCAGGS-RaichuEV-Rac1was generously provided by K. Aoki (National Institute for Basic Biology, Japan)[41] and the RhoA FRET sensor, DORA-RhoA was generously provided by Yi I. Wu (University of Connecticut Health Center, USA)[42]. The expression vectors for Rac1/Tiam1 activation system (Lyn11-linker-FRB, YFP-FKBP, YFP-FKBP-linker-Tiam1, and pTriEx-PA-Rac1) was generously provided by T. Inoue (Johns Hopkins University, USA)[43].

[2] = tested on: integrin knockdown HuH-7 cells; experiment: Cell adhesion assay, integrin knockdown HuH-7; settings: coated with 100 µM FFFIKLLI, n = 30
Description: Integrin β1 shRNA plasmid (#sc-29375-SH), Integrin α3 shRNA plasmid (#sc-35684-SH), Integrin α6 shRNA plasmid (#sc-43129-SH), and control shRNA plasmid-A (#sc-108060) were purchased from Santa Cruz Biotechnology for knockdown of the target integrins. The knockdown efficiency was evaluated by western blotting.
The 96-well microplates wells were coated with peptide assemblies (the concentration of FFFIKLLI was kept at 100 μM constantly) for 12 hr at 37 °C before blocked with the Blocking Buffer (2% BSA, 1 mM CaCI2 and 1 mM MnCI2 in PBS) for 1 hr at 37 °C. Cells were collected from culture dishes and suspended in the Blocking Buffer containing anti-laminin-5 (P3H9-2, MAB1947, Chemicon, 5 μg/ml), anti-fibronectin (IST-9, ab6328, Abcam, 20 μg/ml) or IgG isotype control (20 μg/ml, Abcam) before immediately seeded to the coated well (20,000 cells/well) and allowed to incubate at 37 °C for 1 h. The wells were washed for three times with the Blocking Buffer and the phase-contrast images were captured by IncucyteS3 (Essen Bioscience) with a 10× objective.

[3] = vin258-transfected HuH-7, 12 hr, n = 51 cells, mean

FFFIKLLI [assembling ligand: FFF coupled to the N-terminus of IKLLI; self-assembles into nanofilaments]
Perimeter / Area (HuH-7 cells; Tiam1/Rac1-preactivated HuH-7, 12 hr, n = 64 cells, p = 0.5635 vs Ctrl): 0.1130 µm-1
Spreading area (HuH-7 cells; Tiam1/Rac1-preactivated HuH-7, 12 hr, n = 64 cells, p = 0.8317 vs Ctrl): 4496 µm2
Spreading area (HuH-7 cells; glass, FN or LM-5 coated dish (order not readable), 12 hr, value 2): 1802 µm2
Spreading area (HuH-7 cells; glass, FN or LM-5 coated dish (order not readable), 12 hr, value 3): 1763 µm2
Perimeter / Area (HuH-7 cells; [3]): 0.2881 µm-1
Spreading area (HuH-7 cells; [3]): 2047 µm2
RhoA activity, FRET/CFP ([1]; 12 hr, n = 50 cells, mean): 1.263
RhoA activity ([1]; HuH-7): great inhibition; also recorded: suppressed RhoA activity; also recorded: global inhibition
adherence after knockdown of α3 or β1 subunit [2]: significantly reduced their adherence

— article PMC9411606, “Control cell migration by engineering integrin ligand assembly” (Nature Communications, 2022)
